Assay results as given in patent US8025905B2, “Method for reducing allergencity in indoor spaces” (priority 2001, dated 2011).

How the values were obtained:
house dust mites = details: levels of only 0.1% permethrin; cited from earlier work
[1] = ointment containing 5% permethrin applied for 12 hours, then washed off; cited from earlier work
allergenic polypeptides = assay: Enzymatic degradation of allergens by proteases; format: biochemical
Source text: Any enzyme that will cleave the allergenic polypeptides to destroy the epitopes recognized by the asthmatic's sensitized immune system is suitable, but proteases that are less specific (i.e., hydrolyze peptide bonds between a variety of different amino acid residues, rather than only between specific residues) are preferred. […] Similar non-specific proteases are suitable for use in this invention, as well as Bacillus neutral proteases and the like. Genetically engineered enzymes are within the contemplation of this invention, so long as the resulting enzyme can be shown to destroy allergenic epitopes of the primary allergens, as shown by ELISA tests (see, e.g., U.S. Pat. No. 5,314,991). Suitable assays may be analogous to the tests for active T cell epitopes of Der pI, Der pII, Der f1, and Der fII disclosed in U.S. Pat. No. 5,968,526 (incorporated herein by reference).

In the case of `CC1(C)C(C=C(Cl)Cl)C1C(=O)OCc1cccc(Oc2ccccc2)c1` (stereo not shown) [Permethrin], the “kill of house dust mites in carpet” value (house dust mites) is given as 100% and the “permethrin absorbed through the skin” value [1] is given as “Less than 2%”.

B1: subtilisin BPN: subtilisin-type protease derived from B. amyloliquefaciens (protein, UniProt P00782 108-382, looked up)
Subtilisin BPN': AQSVPYGVSQIKAPALHSQGYTGSNVKVAVIDSGIDSSHPDLKVAGGASMVPSETNPFQDNNSHGTHVAGTVAALNNSIGVLGVAPSASLYAVKVLGADGSGQYSWIINGIEWAIANNMDVINMSLGGPSGSAALKAAVDKAVASGVVVVAAAGNEGTSGSSSTVGYPGKYPSVIAVGAVDSSNQRASFSSVGPELDVMAPGVSIQSTLPGNKYGAYNGTSMASPHVAGAAALILSKHPNWTNTQVRSSLENTTTKLGDSFYYGKGLINVQAAAQ
With B1 the “effectiveness in cleaving allergenic polypeptides” value (allergenic polypeptides) was “effective”.

B2: subtilisin savinase: subtilisin-type protease derived from Bacillus lentus (protein, UniProt P29600 1-269, looked up)
Subtilisin Savinase: AQSVPWGISRVQAPAAHNRGLTGSGVKVAVLDTGISTHPDLNIRGGASFVPGEPSTQDGNGHGTHVAGTIAALNNSIGVLGVAPSAELYAVKVLGASGSGSVSSIAQGLEWAGNNGMHVANLSLGSPSPSATLEQAVNSATSRGVLVVAASGNSGAGSISYPARYANAMAVGATDQNNNRASFSQYGAGLDIVAPGVNVQSTYPGSTYASLNGTSMATPHVAGAAALVKQKNPSWSNVQIRNHLKNTATSLGSTNLYGSGLVNAEAATR
With B2 the “effectiveness in cleaving allergenic polypeptides” value (allergenic polypeptides) was “effective”.
